Results taken from US20250360145A1, “CSF-1R INHIBITORS AND USES THEREOF” (Myrobalan Therapeutics, Inc., priority 2022, published 2025).
Read-outs that look alike come from different tables or passages of the source.

Columns and labels:
[1] = test system: CSF1R phosphorylation in THP-1 cells; assay: p-CSF1R ELISA assay in THP1 cells; assay type: cell-based; conditions: Homo sapiens, THP1 cells pre-treated one hour, stimulated with hCSF1, read-out: THP1 pCSFIR ELISA EC50
[2] = Brain protein binding study; assay type: in vitro ADME; conditions: mouse brain homogenate, equilibrium dialysis 4 hours
Description: On the day of experiment, brain homogenate was thawed in water bath at room temperature and then incubated at 37° C. for 10 min before use. Pretreat the dialysis membrane according to the manufacturer's instructions: the dialysis membrane strips were soaked in ultra pure water at room temperature for approximately 1 hr. After that, each membrane strip that contains 2 membranes was separated and soaked in ethanol:water (20:80 v:v) for approximately 20 min, after which it was ready for use or was stored in the solution at 2-8° C. for up to 1 month. Prior to the experiment, the membrane was rinsed and soaked for 20 min in ultra pure water for use. Then working solutions (400 μM) of test compound and control compound were prepared. Aliquots of working solutions (3 μL) were spiked into blank matrix (597 μL) to achieve final concentrations and mixed thoroughly. Aliquots of 50 μL loading matrix containing test compound or control compound in triplicate was transferred to Sample Collection Plate, respectively. The samples were matched with opposite blank buffer to obtain a final volume of 100 μL with a volume ratio of matrix:Dialysis Buffer (1:1, v:v) in each well immediately. The stop solution was added to these T0 samples of test compound and control compound. The plate was sealed and shaked at 800 rpm for 10 min. Then these T0 samples were stored at 2-8° C. pending further process along with other post-dialysis samples. The dialysis instrument was assembled following manufacture's instructions. An aliquot of 100 μL of the loading matrix containing test compound or control compound was transferred to the donor side of each dialysis well in triplicate and 100 μL of the Dialysis Buffer was loaded to the receiver side of the well. Then the plate was rotated at approximately 100 rpm in a humidified incubator with 5% CO2 at 37±1° C. for 4 hours. At the end of the dialysis, aliquots of 50 μL samples from the buffer side and matrix side of the dialysis device were taken into new 96-well plates (Sample Collection Plates). An equal volume of opposite blank matrix (buffer or matrix) in each sample was added to reach a final volume of 100 μL with volume ratio of matrix:Dialysis Buffer at 1:1 (v:v) in each well. All samples were further processed by protein precipitation for LC/MS/MS analysis.

[3] = In vivo PK study (plasma and brain exposure); design: species or system CD1 mouse; conditions: for Kp uu / half-life / AUC(0-t) / AUC(0-inf) / clearance / Vd / bioavailability / Cmax / Tmax: male; for Kp uu: CD1, brain, BBB penetration; for half-life: CD1, mouse; for clearance: read-out: IV-2mpk CL (converted); for Vd: read-out: IV-2mpk VSS; for bioavailability: p.o. 45 mg/kg vs i.v. 2 mg/kg; for Cmax: read-out: PO-45mpk Cmax; for Tmax: read-out: PO-45mpk Tmax
Description: The PK profiles were determined in CD1 mouse, and all the procedures and protocols were in accordance with the National Institutes of Health Guide for the Care and Use of Laboratory Animals. The CD1 mouse were purchased from JH Laboratory Animal Co. LTD. The CD1 mouse (23-30 g, 6-8 weeks, male) were randomized and divided into five groups consisting of 21 mouse per group. The test compounds that have been formulated were subjected to PK studies. The test compounds were administrated via p.o. at 45 mg/kg and i.v. at 2 mg/kg. […] The blood samples were placed on wet ice, and serum was collected after centrifugation. Serum samples were frozen and stored at −70° C. The brain samples were dried on filtrate paper, and snap frozen on dry ice and further stored at −70° C. Then, the blood samples and brain samples were further analyzed by LC-MS/MS (Triple Quad 6500+).

[4] = Plasma protein binding study; assay type: in vitro ADME; conditions: mouse plasma, equilibrium dialysis 4 hours; read-out: PPB-mouse (Bound) (%) (converted)
Description: On the day of experiment, the plasma was thawed under running cold tap water and centrifuged at 3220×g for 5 min to remove any clots. The pH value was checked and recorded. Only plasma within range of pH 7.0 to pH 8.0 was used. Pretreat the dialysis membrane according to the manufacturer's instructions: the dialysis membrane strips were soaked in ultra pure water at room temperature for approximately 1 hr. After that, each membrane strip that contains 2 membranes was separated and soaked in ethanol:water (20:80 v:v) for approximately 20 min, after which it was ready for use or was stored in the solution at 2-8° C. for up to 1 month. Prior to the experiment, the membrane was rinsed and soaked for 20 min in ultra pure water for use. Working solutions (400 μM) of test compound and control compound were prepared. Aliquots of working solutions (3 μL) were spiked into blank matrix (597 μL) to achieve final concentrations and mixed thoroughly. Aliquots of 50 μL loading matrix containing test compound or control compound in triplicate was transferred to Sample Collection Plate, respectively. The samples were matched with opposite blank buffer to obtain a final volume of 100 μL with a volume ratio of matrix:Dialysis Buffer (1:1, v:v) in each well immediately. The stop solution was added to these T0 samples of test compound and control compound. The plate was sealed and shaked at 800 rpm for 10 min. Then these T0 samples were stored at 2-8° C. pending further process along with other post-dialysis samples. The dialysis instrument was assembled following manufacture's instructions. An aliquot of 100 μL of the loading matrix containing test compound or control compound was transferred to the donor side of each dialysis well in triplicate and 100 μL of the Dialysis Buffer was loaded to the receiver side of the well. Then the plate was rotated at approximately 100 rpm in a humidified incubator with 5% CO2 at 37±1° C. for 4 hours. At the end of the dialysis, aliquots of 50 μL samples from the buffer side and matrix side of the dialysis device were taken into new 96-well plates (Sample Collection Plates). An equal volume of opposite blank matrix (buffer or matrix) in each sample was added to reach a final volume of 100 μL with volume ratio of matrix:Dialysis Buffer at 1:1 (v:v) in each well. All samples were further processed by protein precipitation for LC/MS/MS analysis.

CSF-1R = CSF-1R (Homo sapiens (Human), UniProt P07333); assay: Biochemical HTRF kinase assay, CSF-1R; conditions: recombinant human CSF-1R;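 note: enzyme incubated with inhibitor plus a substrate and ATP mix for one hour at room temperature before HTRF detection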
[5] = test system: Ba/F3_CSF-1R (stably expressing human CSF-1R kinase); assay: Cell proliferation assay, Ba/F3_CSF-1R; assay type: cell-based; conditions: BaF3, 72 h, Ba/F3_CSF-1R cells, 72 hours treatment; read-out: CSF-1R BaF3 EC50
EOC2 cell = assay: Cell proliferation assay, EOC2; assay type: cell-based, mouse; conditions: Mus musculus, 72 h, EOC2 cells, 72 hours treatment; read-out: ECO2 EC50
PDGFRβ = PDGFRβ (Homo sapiens (Human), UniProt P09619); assay: Biochemical HTRF kinase assay, PDGFRβ; conditions: for IC50: recombinant human protein, read-out: PDGFR-1β IC50; for PDGFR-1β Fold: selectivity: IC50 of PDGFR-1β as multiple of IC50 of CSF-1R;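 for all read-outs here: kinase reaction with substrate/ATP mix run 1 h at room temperature in 384-well format, HTRF signal detection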
FLT3 = FLT3 (Homo sapiens (Human), UniProt P36888); assay: Biochemical HTRF kinase assay, FLT3; conditions: for IC50: recombinant human protein; for FLT3 Fold: selectivity: IC50 of FLT3 as multiple of IC50 of CSF-1R
c-Kit = c-Kit (Homo sapiens (Human), UniProt P10721); assay: Biochemical HTRF kinase assay, c-Kit; conditions: for IC50: recombinant human protein, read-out: cKit IC50; for cKit Fold: selectivity: IC50 of cKit as multiple of IC50 of CSF-1R;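 for all read-outs here: enzyme reaction with substrate and ATP run in 384-well plates for 1 hour at room temperature, kinase activity detected by HTRF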
[6] = serum, iv, 2 mg/kg, CD1 mouse, i.v. 2 mg/kg, read-out: IV-2mpk T1/2 (converted)
[7] = serum, po, 45 mg/kg, CD1 mouse, p.o. 45 mg/kg, read-out: PO-45mpk T1/2 (converted)
[8] = CD1, po, mouse, p.o. 45 mg/kg, brain, read-out: PO-45mpk AUClast-brain
[9] = CD1, po, mouse, p.o. 45 mg/kg, plasma, Tables 7 and 8, read-out: PO-45mpk AUClast-plasma
[10] = serum, iv, CD1 mouse, i.v. 2 mg/kg, read-out: IV-2mpk AUCInf
[11] = serum, iv, CD1 mouse, i.v. 2 mg/kg, read-out: IV-2mpk AUClast
[12] = serum, iv, CD1 mouse, i.v. 2 mg/kg
[13] = serum, po, CD1 mouse, p.o. 45 mg/kg, Tables 5 and 6, read-out: PO-45mpk AUClast
[14] = serum, po, CD1 mouse, p.o. 45 mg/kg, read-out: PO-45mpk AUCInf
[15] = serum, po, CD1 mouse, p.o. 45 mg/kg

Sequence of c-Kit (P10721 26-976): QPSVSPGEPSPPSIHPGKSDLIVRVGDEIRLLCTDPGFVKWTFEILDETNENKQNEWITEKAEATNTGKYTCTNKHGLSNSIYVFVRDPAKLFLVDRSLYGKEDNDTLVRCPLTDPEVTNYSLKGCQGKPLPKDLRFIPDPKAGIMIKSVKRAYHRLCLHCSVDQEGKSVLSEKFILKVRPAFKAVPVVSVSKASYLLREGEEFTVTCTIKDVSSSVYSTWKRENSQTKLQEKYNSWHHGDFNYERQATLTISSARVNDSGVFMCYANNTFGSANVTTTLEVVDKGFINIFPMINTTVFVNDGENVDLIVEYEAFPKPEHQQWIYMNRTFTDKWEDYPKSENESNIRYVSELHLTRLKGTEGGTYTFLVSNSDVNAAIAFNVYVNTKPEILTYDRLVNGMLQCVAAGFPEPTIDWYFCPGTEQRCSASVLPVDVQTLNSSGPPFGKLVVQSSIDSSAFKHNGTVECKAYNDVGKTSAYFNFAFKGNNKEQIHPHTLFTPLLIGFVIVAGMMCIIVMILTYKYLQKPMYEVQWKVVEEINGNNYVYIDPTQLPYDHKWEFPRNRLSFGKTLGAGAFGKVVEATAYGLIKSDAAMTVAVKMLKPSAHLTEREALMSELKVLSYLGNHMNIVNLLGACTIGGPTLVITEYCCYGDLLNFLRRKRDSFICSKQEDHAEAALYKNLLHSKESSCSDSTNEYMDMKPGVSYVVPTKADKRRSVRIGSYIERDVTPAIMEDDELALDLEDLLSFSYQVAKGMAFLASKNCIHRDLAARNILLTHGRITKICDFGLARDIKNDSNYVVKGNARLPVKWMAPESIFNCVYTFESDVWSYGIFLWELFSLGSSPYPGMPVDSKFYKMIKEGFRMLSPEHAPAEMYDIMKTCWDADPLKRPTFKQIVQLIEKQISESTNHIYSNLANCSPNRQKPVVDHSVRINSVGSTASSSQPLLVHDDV
Sequence of PDGFRβ (P09619 33-1106): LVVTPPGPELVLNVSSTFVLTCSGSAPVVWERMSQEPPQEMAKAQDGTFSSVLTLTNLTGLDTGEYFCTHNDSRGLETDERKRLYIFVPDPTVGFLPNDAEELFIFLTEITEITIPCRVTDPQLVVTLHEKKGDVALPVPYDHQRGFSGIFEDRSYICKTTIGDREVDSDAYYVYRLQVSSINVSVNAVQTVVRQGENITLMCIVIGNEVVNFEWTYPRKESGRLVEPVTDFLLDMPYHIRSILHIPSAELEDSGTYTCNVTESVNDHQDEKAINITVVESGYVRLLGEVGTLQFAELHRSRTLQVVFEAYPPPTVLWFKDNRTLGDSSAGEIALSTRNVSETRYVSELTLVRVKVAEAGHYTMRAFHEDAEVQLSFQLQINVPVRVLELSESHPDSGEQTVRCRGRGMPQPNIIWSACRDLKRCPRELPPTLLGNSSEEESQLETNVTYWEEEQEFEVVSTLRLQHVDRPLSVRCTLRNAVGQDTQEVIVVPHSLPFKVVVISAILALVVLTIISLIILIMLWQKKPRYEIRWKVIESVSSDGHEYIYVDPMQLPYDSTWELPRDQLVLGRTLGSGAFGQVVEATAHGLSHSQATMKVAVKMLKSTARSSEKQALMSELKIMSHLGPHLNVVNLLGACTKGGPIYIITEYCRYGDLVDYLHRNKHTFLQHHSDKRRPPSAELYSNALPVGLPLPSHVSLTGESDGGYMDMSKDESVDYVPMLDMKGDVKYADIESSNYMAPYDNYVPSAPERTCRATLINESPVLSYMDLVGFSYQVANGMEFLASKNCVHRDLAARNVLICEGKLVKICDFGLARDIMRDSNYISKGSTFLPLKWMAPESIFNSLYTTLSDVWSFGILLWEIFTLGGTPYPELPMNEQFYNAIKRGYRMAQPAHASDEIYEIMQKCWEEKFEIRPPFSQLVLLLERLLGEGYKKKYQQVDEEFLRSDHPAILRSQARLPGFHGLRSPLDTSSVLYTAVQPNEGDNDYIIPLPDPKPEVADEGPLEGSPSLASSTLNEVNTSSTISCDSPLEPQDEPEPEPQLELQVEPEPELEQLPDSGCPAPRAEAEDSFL
Sequence of CSF-1R (P07333 20-972): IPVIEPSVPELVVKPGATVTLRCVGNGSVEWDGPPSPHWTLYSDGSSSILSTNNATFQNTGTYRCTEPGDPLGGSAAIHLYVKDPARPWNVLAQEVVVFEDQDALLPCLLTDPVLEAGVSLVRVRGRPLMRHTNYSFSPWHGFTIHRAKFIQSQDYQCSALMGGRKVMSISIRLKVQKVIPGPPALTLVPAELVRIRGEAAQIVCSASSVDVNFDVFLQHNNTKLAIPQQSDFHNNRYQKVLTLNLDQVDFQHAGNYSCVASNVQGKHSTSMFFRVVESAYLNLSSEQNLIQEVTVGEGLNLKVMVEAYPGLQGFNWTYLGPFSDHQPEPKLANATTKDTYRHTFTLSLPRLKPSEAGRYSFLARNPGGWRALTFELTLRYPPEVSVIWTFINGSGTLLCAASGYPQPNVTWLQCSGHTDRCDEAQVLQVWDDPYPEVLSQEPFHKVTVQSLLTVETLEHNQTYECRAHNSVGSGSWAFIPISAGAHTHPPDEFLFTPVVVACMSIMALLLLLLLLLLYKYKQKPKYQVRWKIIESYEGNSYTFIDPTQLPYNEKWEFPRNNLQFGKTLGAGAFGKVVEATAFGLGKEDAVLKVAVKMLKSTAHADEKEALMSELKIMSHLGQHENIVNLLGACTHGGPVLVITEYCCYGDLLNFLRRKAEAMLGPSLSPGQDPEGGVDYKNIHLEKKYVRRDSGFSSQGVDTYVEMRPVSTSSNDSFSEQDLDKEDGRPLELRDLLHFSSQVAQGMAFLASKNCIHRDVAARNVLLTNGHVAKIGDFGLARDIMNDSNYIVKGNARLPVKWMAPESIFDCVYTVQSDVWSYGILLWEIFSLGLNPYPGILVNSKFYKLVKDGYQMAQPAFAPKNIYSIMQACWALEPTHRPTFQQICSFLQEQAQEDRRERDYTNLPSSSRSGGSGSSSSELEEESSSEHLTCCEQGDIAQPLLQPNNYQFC
Sequence of FLT3 (P36888 27-993): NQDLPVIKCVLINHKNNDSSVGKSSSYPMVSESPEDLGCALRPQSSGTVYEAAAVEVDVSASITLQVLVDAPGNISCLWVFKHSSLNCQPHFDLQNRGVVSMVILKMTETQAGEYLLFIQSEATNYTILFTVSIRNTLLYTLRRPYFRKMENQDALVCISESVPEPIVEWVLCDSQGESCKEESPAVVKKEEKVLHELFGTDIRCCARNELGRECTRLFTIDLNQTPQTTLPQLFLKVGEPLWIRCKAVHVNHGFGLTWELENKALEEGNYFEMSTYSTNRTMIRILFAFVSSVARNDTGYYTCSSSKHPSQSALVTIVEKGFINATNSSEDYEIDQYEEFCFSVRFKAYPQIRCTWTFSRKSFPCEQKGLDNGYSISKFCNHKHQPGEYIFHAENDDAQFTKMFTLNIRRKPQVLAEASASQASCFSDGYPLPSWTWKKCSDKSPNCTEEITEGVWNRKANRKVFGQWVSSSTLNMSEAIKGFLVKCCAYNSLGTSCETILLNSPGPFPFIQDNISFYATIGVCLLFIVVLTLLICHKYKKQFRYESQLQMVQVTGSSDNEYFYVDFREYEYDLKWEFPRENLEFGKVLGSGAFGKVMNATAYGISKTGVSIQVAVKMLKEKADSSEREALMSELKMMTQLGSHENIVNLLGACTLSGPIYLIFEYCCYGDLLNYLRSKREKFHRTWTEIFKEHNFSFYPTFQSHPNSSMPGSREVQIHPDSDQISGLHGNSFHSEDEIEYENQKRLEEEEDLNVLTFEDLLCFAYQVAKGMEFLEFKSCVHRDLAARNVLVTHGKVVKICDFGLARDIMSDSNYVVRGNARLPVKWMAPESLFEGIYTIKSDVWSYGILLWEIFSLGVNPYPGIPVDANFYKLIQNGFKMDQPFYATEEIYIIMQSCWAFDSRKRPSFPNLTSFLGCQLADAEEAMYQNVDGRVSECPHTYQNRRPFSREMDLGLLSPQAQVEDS

Row | Compound | BPB-mouse (Bound) (%) [2] [%] | Kp uu ([3]; po, mouse, p.o. 45 mg/kg) | half-life [3, 6] [h] | AUC(0-t) [3, 8] [ng·h/mL] | AUC(0-t) [3, 9] [ng·h/mL] | AUC(0-inf) [3, 10] [ng·h/mL] | AUC(0-t) [3, 11] [ng·h/mL] | clearance [3, 12] [mL/min/kg] | Vd [3, 12] [L/kg] | AUC(0-t) [3, 13] [ng·h/mL] | Cmax [3, 15] [ng/mL] | Tmax [3, 15] [h] | fraction unbound at 4 h, 2 µM [4] | IC50 (CSF-1R; Table 2) [nM] | EC50 [5] [nM] | EC50 (EOC2 cell) [nM] | IC50 (PDGFRβ) [nM] | PDGFR-1β Fold (PDGFRβ) [fold] | IC50 (CSF-1R; Table 3) [nM] | IC50 (FLT3) [nM] | other results
1 | COc1ccc(COc2ncc(Cc3ccnc(-c4cnn(C)c4)n3)cc2OC)nc1 [Comparator A, reference compound] | 88.37 | 0.86 | 1.34 | 53700 | 181000 | 4660 | 4590 | 7.17 | 0.635 | 181000 | 32000 | 1 | 0.0415 | – | – | – | – | – | – | – | EC50 [1]: 21.3 nM; half-life [3, 7]: 1.64 h; bioavailability ([3]; serum, oral, CD1 mouse): 173%; AUC(0-inf) [3, 14]: 181000 ng·h/mL
2 | COc1cnc2c(Cc3cnc(OCc4ccc(C(F)(F)F)nc4)c(OC)c3)ccnc2c1 [Example 45] | 99.6 | 0.96 | 14.2 | 94800 | 132000 | 14900 | 10700 | 2.23 | 2.49 | 132000 | 8940 | 0.5 | 0.003 | 2.31 | 34.2 | 30.5 | – | – | – | – | IV-2mpk CL ([3]; CD1 mouse, i.v. 2 mg/kg): 2.23 mL/min/kg; IV-2mpk T1/2 ([3]; CD1 mouse, i.v. 2 mg/kg): 14.2 h; bioavailability ([3]; serum, po, CD1 mouse): 55%
3 | COc1cnc2c(Cc3cnc(OCc4cc5n(n4)CC4CC54)c(OC)c3)ccnc2c1 (stereo not shown) [Example 101] | – | – | – | – | – | – | – | – | – | – | – | – | – | 1.9 | 77.7 | 48.3 | 839 | >100 | 1.9 | > 1000 | FLT3 Fold (FLT3): >100 fold; IC50 (c-Kit): 715 nM; cKit Fold (c-Kit): >100 fold
4 | COc1cnc2c(Cc3cnc(OCc4cc5n(n4)C[C@H](F)C5)c(OC)c3)ccnc2c1 [Example 112] | – | – | – | – | – | – | – | – | – | – | – | – | – | 4.7 | 168 | 102 | 874 | >100 | 4.7 | > 1000 | FLT3 Fold (FLT3): >100 fold; IC50 (c-Kit): > 1000 nM; cKit Fold (c-Kit): >100 fold
5 | COc1cnc2c(Cc3cnc(OCc4cc5n(n4)C[C@@H](OC)C5)c(OC)c3)ccnc2c1 [Example 121] | – | – | – | – | – | – | – | – | – | – | – | – | – | 19.9 | 41.1 | 15.2 | > 1000 | >50 | 19.9 | > 1000 | FLT3 Fold (FLT3): >50 fold; IC50 (c-Kit): > 1000 nM; cKit Fold (c-Kit): >50 fold
6 | COc1ncc(F)cc1CNc1ccc(Cc2c[nH]c3ncc(C)cc23)c(F)n1 [PLX5622, reference compound] | 99.97 | 0.003 | 3.69 | 37600 | 163000 | 6130 | 6100 | 5.43 | 0.98 | 163000 | 24900 | 1 | 0.023 | – | – | – | – | – | – | – | half-life [3, 7]: 2.43 h; bioavailability ([3]; serum, oral, CD1 mouse): 118%; AUC(0-inf) [3, 14]: 163000 ng·h/mL
